Values quoted from earlier work in patent US6399093B1, “Method and composition to treat musculoskeletal disorders” (Advanced Medical Instruments, priority 1999, dated 2002).

What was measured:
[1] = oral
[2] = oral diclofenac group
[3] = after oral administration

SMILES: COc1cc2c(c(OC)c1OC)-c1ccc(OC)c(=O)cc1[C@@H](NC(C)=O)CC2 [colchicine, Colchicine]
- Patients unable to tolerate an optimal dose because of gastrointestinal side effects [1]: Eighty

SMILES: O=C(O)Cc1ccccc1Nc1c(Cl)cccc1Cl [diclofenac]
- Number of GI reactions relative to the topical eltenac group [2]: three

SMILES: N[C@H]1C(O)O[C@H](CO)[C@@H](O)[C@@H]1O.O=S(=O)(O)O (stereo partly drawn) [glucosamine sulfate]
- Onset of clinical improvement of symptoms [3]: one
